Results: the NIST ThermoML archive (doi:10.1016/j.jct.2013.05.003)

Assay: xn = mol fraction of the nth substance listed
Conditions: 101.3 kPa, Liquid, fixed-path interferometer

CCOCCCN [3-ethoxy-1-propanamine] + O
speed of sound [m/s]
Conditions	283.15 K	288.15 K	293.15 K	298.15 K	303.15 K
x1 = 0.0001081	1448.8	1466.3	1483.4	1497.2	1509.6
x1 = 0.0003191	1450	1467.4	1484.5	1498	1510.4
x1 = 0.0006252	1451.8	1469.1	1486	1499.4	1511.6
x1 = 0.000707	1452.2	–	–	–	–
x1 = 0.0009424	1453.7	1470.9	1486.9	1500.9	1512.8
x1 = 0.001046	1454.2	–	–	–	–
x1 = 0.001284	1455.6	1472.6	1489.1	1502.2	1514.2
x1 = 0.001947	1459.5	1476.2	1491.7	1505.4	1516.8
x1 = 0.002912	1465.1	1481.3	1496.4	1509.6	1520.7
x1 = 0.00392	1470.9	1486.6	1501.2	1514	1524.7
x1 = 0.005098	1477.6	1492.8	1506.8	1519	1529.2
x1 = 0.007456	1491	1505	–	–	–
x1 = 0.00981	1504	1516.7	1528.6	1538.8	1547.2
x1 = 0.0148	1530.2	1540.6	1550.3	1558.4	1565
x1 = 0.01956	1554	1562.9	1569.7	1576	1580.7
x1 = 0.02832	1594.2	1599	1602.1	1604.7	1606.4
x1 = 0.03914	1636.5	1636.7	1635.3	1633.7	1631.8
x1 = 0.05082	1672.1	1668	1662.5	1657.2	1651.3
x1 = 0.06674	1704.8	1695.7	1685.7	1676.2	1666.3
x1 = 0.09536	1724	1709.3	1695.7	1681.6	1667.7
x1 = 0.1209	1715.9	1700.4	1684.2	1668.3	1653.1
x1 = 0.1452	1699.3	1682.6	1666.7	1650.2	1633.9
x1 = 0.1844	1669	1651.6	1634.3	1617.3	1600.4
x1 = 0.2121	1645.8	1627.7	1610.5	1593.4	1576.1
x1 = 0.2438	1623.7	1604.4	1587.9	1569.9	1552.3
x1 = 0.2923	1593	1575	1557.5	1539.4	1521.5
x1 = 0.361	1556.4	1535.7	1518.2	1499.2	1480.9
x1 = 0.4369	1524.2	1504.5	1485.9	1466.9	1448.1
x1 = 0.493	–	–	1461.7	1442.5	–
x1 = 0.4937	1501.5	1481	1461.8	1442.6	1423.4
x1 = 0.5513	1482.2	1461.9	1442.2	1422.7	1403.3
x1 = 0.6214	1462.5	1441.5	1421.8	1402	1382.3
x1 = 0.6775	1448.2	1426.9	1407.3	1386.7	1366.7
x1 = 0.6943	1444.5	1423.4	1402.9	1383.1	1363.1
x1 = 0.7458	1432.9	1411.3	1391.1	1370.8	1350.5
x1 = 0.7733	1427.7	–	1385.3	1365.2	1344.8
x1 = 0.7947	1422.9	1401.1	1380.6	1360.2	1339.8
x1 = 0.8276	1416.8	1395.1	1374.1	1353.6	1333.2
x1 = 0.8488	1412.3	1390.7	–	1349.3	–
x1 = 0.8744	1408.1	–	1365.1	1344.6	1324
x1 = 0.8993	1403	1381.5	1360	1339.3	1319.2
x1 = 0.9189	1399.9	1378	1356.7	1335.6	1315.1
x1 = 0.9349	–	1375	–	–	–
x1 = 0.9411	1395.9	–	1352.4	1331.8	1311.1
x1 = 0.9436	–	1373.5	–	–	–
x1 = 0.9486	1394.8	–	1351.3	1330.7	1309.8
x1 = 0.9551	–	1371.3	–	–	–
x1 = 0.9601	1392.6	1370.4	–	–	–
x1 = 0.9613	–	–	1349	1327.9	1307.3
x1 = 0.9746	–	1367.5	–	1325.7	1304.7
x1 = 0.9755	–	1367.8	–	–	–
x1 = 0.985	1391	1366.2	–	–	–
x1 = 0.9871	–	–	1344.3	1321.5	1302.4
x1 = 1	1386.4	1364.2	1342	1321.2	1300.4
